The results in this text go back to a melting point compilation (Tetko et al.).

SMILES strings stand for the structures.

For the compound `O=C(O)c1csc(S(=O)(=O)Cl)c1`, the melting point fell in the range of 130 to 132 °C.
With `COc1ccc(OCC(=O)NN)cc1` the figure was 142 to 144 °C; with `O=C(O)c1c(Cl)nc2ccccc2c1Cl`, 167 to 169 °C; with `NC(=O)c1c(N)sc2c1CCCC2`, 153 to 155 °C.
With `Cc1cc(S(N)(=O)=O)sc1Br` the figure was 149 to 151 °C.
With `Cc1cc(C)n2nc(N)nc2n1`, the melting point was 369 to 371 °C.
Under `NC(=O)C1OCCc2ccccc21` (stereo not drawn) stands 169 to 171 °C; under `Nc1cc(CCc2ccco2)no1`, 67 to 69 °C.
`Fc1cc2nc[nH]c2cc1F` showed a melting point of 159 to 161 °C.
Under `CC(C)(C)C(=O)Nc1cccc(C(=O)O)c1` stands 211 to 213 °C; under `Cc1cccc(CSCC(=O)O)c1`, 74 to 76 °C; under `O=C1CC(c2ccccc2)Nc2ccccc2N1` (stereo not drawn), 162 to 164 °C.
On to `O=C1CCc2cc(C(=O)c3ccccc3)ccc2N1`, for which the melting point was 207 to 209 °C.
As for `O=C(O)Cc1ccc(NC(=O)C2CCCC2)cc1`, the melting point was 173 to 175 °C.
Compound `N#CCC(=O)N1CCN(C(c2ccccc2)c2ccccc2)CC1` returned a melting point of 110 to 112 °C.
Under `CCn1cc(Br)cc1C(=O)O` stands 148 to 150 °C; under `CC(=CC(=O)O)c1ccccc1Cl`, 75 to 77 °C; under `CCCCn1nc(C(=O)O)ccc1=O`, 119 to 121 °C.
With `Cc1ccc2sc(-c3ccc(CCl)cc3)nc2c1` the figure was 149 to 151 °C; with `CN(C)Cc1nc(S)c2ccccc2n1`, 131 to 133 °C; with `Nc1cccnc1-n1cccn1`, 65 to 67 °C.
Under `CC(C)(C)OC(=O)N1CC=C(c2ccc(O)cc2)CC1` stands 134 to 136 °C.
`COc1nc(Cl)c(C=O)n1C` had a melting point of 105 to 107 °C.
Under `COc1cc(C(=O)O)cc(OC)c1OCC(N)=O` stands 249 to 253 °C; under `O=C(CCl)N1CC=C(c2ccccc2)CC1`, 86 to 88 °C.
With `Cn1cc(SSc2cnn(C)c2)cn1` the figure was 111 to 113 °C.
Compound `Cc1ccc(OC(C)C(=O)O)c(Br)c1` (stereo not drawn) came in with a melting point of 120 to 122 °C.
Take `Nc1ccc(N2CCOCC2)c(S(=O)(=O)Nc2ccccc2Cl)c1`: the melting point lay in the range of 219 to 221 °C.
Under `O=C(Nc1ccccc1)Nc1ccc(C(=O)O)cc1` stands 260 to 262 °C; under `Cc1ccc(-n2nc(C(=O)O)c3c2CCC3)c(C)c1`, 198 to 200 °C.
With `CCN1C(=N)C(C)(C)N(C)C1=O` the figure was 88 to 90 °C; with `Cc1nn(Cc2ccc(F)cc2)c2sc(C(=O)O)cc12`, 227 to 229 °C; with `CC(Oc1cccc(CO)c1)C(=O)O` (stereo not drawn), 95 to 97 °C.
With `NC(=C[N+](=O)[O-])N1CCOCC1` the figure was 236 to 238 °C.
Consider `Cn1ccnc1SCc1cccc(C(=O)O)c1`, for which the melting point lay in the range of 157 to 159 °C.
With `C=CCn1c(S)nc2sccc2c1=O` the figure was 212 to 214 °C; with `O=C(O)c1cc(O)cc(OCC(F)(F)F)c1`, 165 to 167 °C.
Turning to `N#Cc1ccc(Oc2ccc(N)cc2)cc1`, the melting point was 110 to 112 °C.
Under `CC(C)NS(=O)(=O)c1cccc(CN)c1` stands 98 to 100 °C; under `Cc1nc(C(=O)O)c(C)s1`, 172 to 174 °C; under `ClCc1nnc(-c2ccco2)o1`, 81 to 83 °C.
With `CC(=O)NC12CC3CC(C1)CC(C(=O)O)(C3)C2` the figure was 258 to 260 °C.
With `Cn1c(=O)n(C)c2cc(C(=O)O)c(Br)cc21`, the melting point lay within 289 to 291 °C.
Under `CNS(=O)(=O)Cc1cc(C)on1` stands 69 to 71 °C.
With `Cc1ccc(Cl)nc1CC(=O)O` the figure was 120 to 122 °C; with `CNS(=O)(=O)c1ccc(C)c(C(=O)O)c1`, 170 to 172 °C; with `O=C(NC1CC1)C(=O)N1CCNCC1`, 100 to 102 °C.
`Cc1ccc(-n2nc(C(C)(C)C)cc2N)cc1` displayed a melting point of 116 to 118 °C.
Under `CC(C)c1ccc(-n2nnnc2S)cc1` stands 100 to 102 °C; under `COc1ccc(C=O)cc1OCC(N)=O`, 136 to 138 °C.
Under `COc1ccc(Br)cc1CBr` stands 51 to 58 °C; under `CC(O)c1ccc(Oc2ccc(Br)cc2)cc1` (stereo not drawn), 67 to 69 °C; under `CC(C)(C)OC(=O)Nc1ccc(CC(N)=S)cc1`, 160 to 162 °C.
For the compound `O=C(O)CSc1ccc(F)cc1F`, the melting point was 73 to 75 °C.
Under `CN1C(=O)CC(C(=O)O)C1c1cccc(Cl)c1` (stereo not drawn) stands 155 to 157 °C.
With `Cc1nn(CC(C)C)c(Cl)c1C(=O)O`, the melting point was 128 to 130 °C.
In turn, `Cc1oc2cc(O)ccc2c(=O)c1Oc1ccccc1` showed a melting point of 235 to 237 °C.
Under `O=C(O)CCc1nc(-c2nnc[nH]2)no1` stands 246 to 248 °C; under `Cc1nc2ncnn2c(C)c1CCC(=O)O`, 224 to 226 °C; under `O=C(O)C=CC1CC1`, 68 to 70 °C.
With `COc1ccc2cc[nH]c(=O)c2c1` the figure was 201 to 203 °C; with `O=C(O)CCOc1ccccc1F`, 112 to 114 °C.
Under `CC(=O)c1ccc(SCC(=O)O)cc1F` stands 138 to 140 °C; under `Cc1ccc(S(=O)(=O)N(C)c2ccc(C(=O)O)cc2)cc1`, 188 to 190 °C; under `O=C1COc2c(cccc2C(=O)O)N1`, 311 to 313 °C.
In turn, `Cc1ccc(-n2nc(C)cc2N)nn1` showed a melting point of 119 to 121 °C.
With `O=C(O)c1ccc(F)c(S(=O)(=O)N2CCC2)c1` the figure was 180 to 182 °C; with `Cc1ccc(N)cc1-n1nnnc1C`, 139 to 141 °C; with `Cc1[nH]c(N)c(C#N)c1C`, 149 to 151 °C.
Compound `CC(N)c1ccc(-c2ccncc2)cc1` (stereo not drawn) returned a melting point of 87 to 89 °C.
With `O=C1CCCc2nc(-c3ccc(F)cc3)sc21` the figure was 142 to 144 °C; with `CCOC(=O)c1ccc(NCC2CC2)cc1`, 69 to 71 °C; with `O=C(O)c1cc(S(=O)(=O)Cl)c(F)cc1Br`, 148 to 150 °C.
Turning to `O=C(O)c1cnc(-c2ccccc2F)s1`, the melting point lay in the range of 187 to 189 °C.
Turning to `O=C(O)COc1ccc(C(=O)c2ccc(Cl)cc2)cc1`, the melting point fell in the range of 185 to 187 °C.
With `Cc1nc(N)n[nH]1` the figure was 142 to 144 °C; with `CCOc1ccc(S(=O)(=O)N2CCOCC2)cc1N`, 165 to 167 °C.
As to `CC(C)(C)OC(=O)NCCNS(=O)(=O)c1ccc(N)cc1`, the melting point was 130 to 132 °C.
In the case of `CCOC(=O)NC1CCC(O)CC1` (stereo not drawn), the melting point lay within 132 to 134 °C.
`Nc1cccc(CS(N)(=O)=O)c1` returned a melting point of 144 to 146 °C.
Turning to `COc1ccccc1NS(=O)(=O)c1ccc(O)c(C(=O)O)c1`, the melting point is 172 to 174 °C.
Under `O=C(O)CCC(=O)N1CCOc2ccccc21` stands 109 to 111 °C; under `Cc1cccc([N+](=O)[O-])c1F`, 19 to 21 °C.
Under `C#CCOc1ccc(C(=O)O)cc1` stands 216 to 218 °C; under `O=C(O)Cn1nc2n(c1=O)CCCCC2`, 229 to 231 °C; under `CCCC(C)=CC(=O)O`, 33 to 35 °C.
With `O=C(O)CSCc1cccc(Cl)c1` the figure was 74 to 76 °C; with `NC(=O)Cc1ccccc1F`, 158 to 160 °C; with `CN1CCC(n2ncc3cc(Br)cnc32)CC1`, 120 to 122 °C.
Consider `O=C(O)CCCCOc1ccc2oc3ccccc3c2c1`, for which the melting point lay within 114 to 116 °C.
Under `Cn1cnc2cc(C#N)ccc21` stands 139 to 141 °C.
Under `O=C(O)c1c[nH]c2ccc([N+](=O)[O-])cc12` stands 255 to 257 °C; under `O=[N+]([O-])c1ccc(OC2CCNCC2)cc1`, 97 to 99 °C.
Under `NS(=O)(=O)c1ccc2c(c1)CCCO2` stands 145 to 147 °C; under `Fc1cccc(F)c1-n1ccc(CCl)n1`, 39 to 41 °C.
For `O=C(CCl)N(Cc1nnc(-c2ccc(Cl)cc2)o1)C1CC1`, the melting point was 102 to 104 °C.
In turn, `COc1cc(/C=C/C(=O)O)ccc1OC(C)C` registered a melting point of 83 to 87 °C.
For the compound `Cc1cc(O)nc(CCl)n1`, the melting point was 147 to 149 °C.
Compound `O=C(O)c1scnc1C1CC1` came in with a melting point of 204 to 206 °C.
`CC(O)c1nc2ncc(Br)cc2[nH]1` (stereo not drawn) yielded a melting point of 218 to 220 °C.
With `CCC(Oc1ccccc1F)C(=O)O` (stereo not drawn) the figure was 63 to 65 °C.
With `NC(=O)C1CCN(C(=O)CCl)CC1` the figure was 136 to 138 °C.
For `O=C(O)C1CCN(c2ccc3c(c2)OCCO3)C1=O` (stereo not drawn), the melting point lay within 122 to 124 °C.
Under `CCOC(=O)c1sc2ccsc2c1CBr` stands 98 to 100 °C; under `CCOC(=O)c1cnn2c(C(=O)OCC)c(CCCO)cnc12`, 70 to 72 °C.
With `N#Cc1ccc(NCCO)cc1` the figure was 84 to 86 °C; with `O=C(CBr)C12CC3CC(CC(C3)C1)C2`, 59 to 61 °C.
Consider `Cc1cccc(C(N)CC(=O)O)c1C` (stereo not drawn), for which the melting point lay within 211 to 213 °C.
With `O=C(O)CSc1ccccc1O` the figure was 51 to 53 °C; with `O=C1C(Br)CCN1c1ccccc1` (stereo not drawn), 99 to 101 °C.
In turn, `COc1ccc2c(c1)OCC2=O` had a melting point of 119 to 121 °C.
With `COC(=O)C(=O)CC(=O)c1cc(OC)ccc1OC` the figure was 85 to 90 °C.
With `O=C1OCC=C1Br` the figure was 53 to 55 °C.
Under `Cc1nc(CO)oc1C` stands 59 to 61 °C; under `Cc1cc(C)c2c(N)c(C(=O)N3CCOCC3)sc2n1`, 147 to 149 °C.
Turning to `CC(C)(C)OC(=O)Nc1cccc(C#N)c1`, the melting point fell in the range of 127 to 129 °C.
As for `Cc1nc(-c2cccc(O)c2)no1`, the melting point lay within 126 to 128 °C.
With `COc1cc(C(=O)NN)ccc1OCCC(C)C` the figure was 88 to 90 °C.
The compound `O=C(O)C=Cc1ccc2ccc(Cl)cc2n1` showed a melting point of 226 to 228 °C.
With `Brc1ccc(Oc2ncccn2)cc1` the figure was 114 to 116 °C; with `O=[N+]([O-])c1ccc(Cl)cc1S(=O)(=O)Cl`, 67 to 69 °C; with `CC(C)(C)NC(=O)NCCCl`, 104 to 106 °C.
`Cc1ccc(C(=O)O)cc1S(=O)(=O)Cl` showed a melting point of 140 to 147 °C.
